Results reported in patent US9540343B2 (Gilead Sciences, Inc., priority 2011, dated 2017).

Legend:
[1] = system: HIV-IIIb; assay: Test A: Antiviral assay in MT4 cells; assay type: cell-based, HIV-1; details: Human immunodeficiency virus 1, IIIB, MT4, 120 h, read-out: % inhibition at 2 μM, percent inhibition of virus-induced cell killing, from dose response curve at 2 uM drug; MT-4 cells infected with HIV-IIIb, 5 days, CellTiter-Glo
[2] = in vitro; details: human, uninfected MT-4 cells, CC50 (nM), same protocol as Test A, CellTiter-Glo
Summary of the method: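 Cytoprotection read-out: CellTiter-Glo chemiluminescence after 5 days at 37 °C of HIV-IIIb-infected MT-4 cells (m.o.i. 0.003) with compound in 10-point 3-fold dilutions, quadruplicate, 10% FBS. Cytotoxicity (CC50) measured identically without virus.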

Compound | inhibition at 2 µM [1] [%] | CC50 at 5 days [2] [nM]
NC(=O)c1cc(-c2cccnc2[C@H](Cc2cc(F)cc(F)c2)NC(=O)Cn2nc(C(F)(F)F)c3c2CCS(=O)(=O)C3)ccc1F [Example 263, (S)-5-(2-(2-(3,5-difluorophenyl)-1-(2-(5,5-dioxido-3-(trifluoromethyl)-6,7-dihydrothiopyrano[4,3-c]pyrazol-1(4H)-yl)acetamido)ethyl)pyridin-3-yl)-2-fluorobenzamide] | 17 | > 53200
NC(=O)c1cccc(-c2cccnc2[C@H](Cc2cc(F)cc(F)c2)NC(=O)Cc2ccccn2)c1 [Example 569, (S)-3-(2-(2-(3,5-difluorophenyl)-1-(2-(pyridin-2-yl)acetamido)ethyl)pyridin-3-yl)benzamide] | 11 | > 53000
Cc1cnc([C@H](Cc2cc(F)cc(F)c2)NC(=O)Cc2c[nH]c3ccc(O)cc23)c(-c2ccc(F)c(C(N)=O)c2)c1 [Example 262G, (S)-5-(2-(2-(3,5-difluorophenyl)-1-(2-(5-hydroxy-1H-indol-3-yl)acetamido)ethyl)-5-methylpyridin-3-yl)-2-fluorobenzamide] | 109 | > 51200
O=C(Cn1nc(C(F)F)c2c1C(F)(F)C1CC21)N[C@@H](Cc1cc(F)cc(F)c1)c1ncncc1-c1cccc2cnccc12 (stereo partly drawn) [Example 185C, 2-(3-(difluoromethyl)-5,5-difluoro-3b,4,4a,5-tetrahydro-1H-cyclopropa[3,4]cyclopenta[1,2-c]pyrazol-1-yl)-N—((S)-2-(3,5-difluorophenyl)-1-(5-(isoquinolin-5-yl)pyrimidin-4-yl)ethyl)acetamide] | 94 | 26500
NC(=O)c1cc(-c2cccnc2[C@H](Cc2cc(F)cc(F)c2)NC(=O)Cn2nc(C(F)(F)F)cc2C2=CCCC2)ccc1F [Example 130D, (S)-5-(2-(1-(2-(5-cyclopentenyl-3-(trifluoromethyl)-1H-pyrazol-1-yl)acetamido)-2-(3,5-difluorophenyl)ethyl)pyridin-3-yl)-2-fluorobenzamide] | 39 | 15800
COc1ccc(-c2cccnc2[C@H](Cc2cccc(F)c2)NC(=O)Cn2nc(C(F)(F)F)c3c2CCCC3)cc1 [Example 29, (S)—N-(2-(3-fluorophenyl)-1-(3-(4-methoxyphenyl)pyridin-2-yl)ethyl)-2-(3-(trifluoromethyl)-4,5,6,7-tetrahydro-1H-indazol-1-yl)acetamide] | 36 | 13200
NC(=O)c1cccc(-c2cccnc2[C@H](Cc2cc(F)cc(F)c2)NC(=O)Cn2ccc3cnc(N)nc32)c1 [Example 226C, (S)-3-(2-(1-(2-(2-amino-7H-pyrrolo[2,3-d]pyrimidin-7-yl)acetamido)-2-(3,5-difluorophenyl)ethyl)pyridin-3-yl)benzamide] | 0 | > 53000
NC(=O)c1cc(-c2cccnc2[C@H](Cc2cc(F)cc(F)c2)NC(=O)Cc2cccc3ccccc23)ccc1F [Example 214, (S)-5-(2-(2-(3,5-difluorophenyl)-1-(2-(naphthalen-1-yl)acetamido)ethyl)pyridin-3-yl)-2-fluorobenzamide] | 8 | 22200
NC(=O)c1cc(-c2cccnc2[C@H](Cc2cc(F)cc(F)c2)NC(=O)Cn2nc(C(F)(F)F)c3c2C2CC2C3O)ccc1F (stereo partly drawn) [Example 457, 5-(2-((1S)-2-(3,5-difluorophenyl)-1-(2-(4-hydroxy-3-(trifluoromethyl)-4,4-a,5,5a-tetrahydro-1H-cyclopropa[4,5]cyclopenta[1,2-c]pyrazol-1-yl)acetamido)ethyl)pyridin-3-yl)-2-fluorobenzamide] | 64 | > 53200
COc1ccc(-c2cccnc2C(Cc2cc(F)cc(F)c2)NC(=O)Cc2c[nH]c3ccc(O)cc23)c(C)c1 (centres unmarked) [Example 5, N-(2-(3,5-difluorophenyl)-1-(3-(4-methoxy-2-methylphenyl)pyridin-2-yl)ethyl)-2-(5-hydroxy-1H-indol-3-yl)acetamide] | 76 | 32700
CC(C)c1cc(C(=O)O)nn1CC(=O)N[C@@H](Cc1cc(F)cc(F)c1)c1ncccc1-c1ccc(F)c(C(N)=O)c1 [Example 521] | 0 | > 53200
O=C(Cc1c[nH]c2ccc(F)cc12)N[C@@H](Cc1cc(F)cc(F)c1)c1ncccc1-c1ccc(Cl)cc1Cl [Example 78, (S)—N-(1-(3-(2,4-dichlorophenyl)pyridin-2-yl)-2-(3,5-difluorophenyl)ethyl)-2-(5-fluoro-1H-indol-3-yl)acetamide] | 11 | 7890
COc1ccc(-c2cccnc2[C@H](Cc2cccc(F)c2)NC(=O)Cc2c[nH]c3ccc(O)cc23)cc1 [Example 28, (S)—N-(2-(3-fluorophenyl)-1-(3-(4-methoxyphenyl)pyridin-2-yl)ethyl)-2-(5-hydroxy-1H-indol-3-yl)acetamide] | 93 | 26000
CCOCc1cn(CC(=O)N[C@@H](Cc2cc(F)cc(F)c2)c2ncccc2-c2ccc(F)c(C(N)=O)c2)nc1C(F)(F)F [Example 330, (S)-5-(2-(2-(3,5-difluorophenyl)-1-(2-(4-(ethoxymethyl)-3-(trifluoromethyl)-1H-pyrazol-1-yl)acetamido)ethyl)pyridin-3-yl)-2-fluorobenzamide] | 3 | 29300
NC(=O)c1cc(-c2cccnc2[C@H](Cc2cc(F)cc(F)c2)NC(=O)Cn2cc(C(=O)O)c(C(F)(F)F)n2)ccc1F [Example 323, (S)-1-(2-(1-(3-(3-carbamoyl-4-fluorophenyl)pyridin-2-yl)-2-(3,5-difluorophenyl)ethylamino)-2-oxoethyl)-3-(trifluoromethyl)-1H-pyrazole-4-carboxylic acid] | 0 | > 53200
NC(=O)c1cc(-c2cccnc2[C@H](Cc2cc(F)cc(F)c2)NC(=O)Cn2c(=O)n(C3=CCCCC3)c3ccccc32)ccc1F [Example 567, (S)-5-(2-(1-(2-(3-cyclohexenyl-2-oxo-2,3-dihydro-1H-benzo[d]imidazol-1-yl)acetamido)-2-(3,5-difluorophenyl)ethyl)pyridin-3-yl)-2-fluorobenzamide] | 11 | 15800
Cc1cc(F)ccc1-c1cccnc1[C@H](Cc1cc(F)cc(F)c1)NC(=O)Cc1c[nH]c2ccc(F)cc12 [Example 404, (S)—N-(2-(3,5-difluorophenyl)-1-(3-(4-fluoro-2-methylphenyl)pyridin-2-yl)ethyl)-2-(5-fluoro-1H-indol-3-yl)acetamide] | 0 | 44600
CN(C)CCNC(=O)c1cccc(-c2cccnc2[C@H](Cc2cc(F)cc(F)c2)NC(=O)Cn2nc(C(F)(F)F)c3c2CCCC3)c1 [Example 401C, (S)-3-(2-(2-(3,5-difluorophenyl)-1-(2-(3-(trifluoromethyl)-4,5,6,7-tetrahydro-1H-indazol-1-yl)acetamido)ethyl)pyridin-3-yl)-N-(2-(dimethylamino)ethyl)benzamide] | 87 | 9720
NC(=O)c1cccc(-c2cccnc2[C@H](Cc2cc(F)cc(F)c2)NC(=O)Cn2c(C(F)F)nc3ccccc32)c1 [Example 358, (S)-3-(2-(1-(2-(2-(difluoromethyl)-1H-benzo[d]imidazol-1-yl)acetamido)-2-(3,5-difluorophenyl)ethyl)pyridin-3-yl)benzamide] | 20 | 47400
CC(=O)Nc1ccc(-c2cccnc2[C@H](Cc2cc(F)cc(F)c2)NC(=O)Cc2c[nH]c3ccc(F)cc23)cc1 [Example 394] | 14 | 30800
NC(=O)c1cc(-c2cncnc2[C@H](Cc2cc(F)cc(F)c2)NC(=O)Cn2nc(C(F)F)c3c2C(F)(F)CCC3(F)F)ccc1F [Example 308, (S)-5-(4-(1-(2-(3-(difluoromethyl)-4,4,7,7-tetrafluoro-4,5,6,7-tetrahydro-1H-indazol-1-yl)acetamido)-2-(3,5-difluorophenyl)ethyl)pyrimidin-5-yl)-2-fluorobenzamide] | 102 | 39800
CC(=O)Nc1cc(-c2cccnc2[C@H](Cc2cc(F)cc(F)c2)NC(=O)Cc2c[nH]c3ccc(F)cc23)ccc1F [Example 473, (S)—N-(1-(3-(3-acetamido-4-fluorophenyl)pyridin-2-yl)-2-(3,5-difluorophenyl)ethyl)-2-(5-fluoro-1H-indol-3-yl)acetamide] | 18 | 14600
O=C(Cn1nc(C(F)F)c2c1C(F)(F)C1CC21)N[C@@H](Cc1cc(F)cc(F)c1)c1ncccc1-c1cncc2ccccc12 (stereo partly drawn) [Example 120, 2-(3-(difluoromethyl)-5,5-difluoro-3b,4,4a,5-tetrahydro-1H-cyclopropa[3,4]cyclopenta[1,2-c]pyrazol-1-yl)-N—((S)-2-(3,5-difluorophenyl)-1-(3-(isoquinolin-4-yl)pyridin-2-yl)ethyl)acetamide] | 73 | 13800
CNCc1cn(CC(=O)N[C@@H](Cc2cc(F)cc(F)c2)c2ncccc2-c2ccc(F)c(C(N)=O)c2)nc1C(F)(F)F [Example 333, (S)-5-(2-(2-(3,5-difluorophenyl)-1-(2-(4-((methylamino)methyl)-3-(trifluoromethyl)-1H-pyrazol-1-yl)acetamido)ethyl)pyridin-3-yl)-2-fluorobenzamide] | 2 | > 53200
COC(=O)c1nn(CC(=O)N[C@@H](Cc2cc(F)cc(F)c2)c2ncccc2-c2ccc(F)c(C(N)=O)c2)c2c1COC2 [Example 452C, (S)-methyl 1-(2-((1-(3-(3-carbamoyl-4-fluorophenyl)pyridin-2-yl)-2-(3,5-difluorophenyl)ethyl)amino)-2-oxoethyl)-4,6-dihydro-1H-furo[3,4-c]pyrazole-3-carboxylate] | 4 | 9070
